≈ marks a conversion by molar mass, not a printed value.
How the values were obtained:
[1] = Solubility study of dapivirine; format: physicochemical; settings: for solubility: 37 °C, aqueous with cosolvent or surfactant or cyclodextrin, thermodynamic from solid; for Time to reach saturation: 37° C.
Method: HPLC quantification of dapivirine was conducted as follows. The HPLC system (Agilent 1050) consisted of a solvent module, quaternary pump module and a variable wavelength UV detector. For analysis of release and solubility study samples, an alkyl amide column (Supelcosil™ ABZ+Plus 3 μm, 3.3 cm×4.6 mm ID, Supelco, Bellefonte, Pa.) was used with a gradient of 50:50 acetonitrile and water to 100% acetonitrile (both containing 0.1% v/v trifluoroacetic acid, TFA) in 4 minutes at a flow rate of 1 mL/min. The retention time of dapivirine was 1.1 min. A linear calibration curve of dapivirine was obtained in the range of 1-100 ng/injection (r^2>0.99) at the detection wavelength of 286 nm. The quantification limit of HPLC for dapivirine was 0.65 ng/injection (corresponds to 2 μl of a 1 μM solution) with a signal to noise ratio greater than 10. A longer method was developed for the stability study; a C-18 column (Hypersil BDS-C18, 10 cm×4.0 mm ID, […], Thermo Electron Corporation, Waltham, Mass.) was used with acetonitrile (A) and water (B) both containing 0.1% v/v TFA as eluent at a flow rate of 1 mL/min. A gradient of 30:70 A:B to 70:30 A:B was applied in 7 minutes with retention time of dapivirine at 5.7 minutes. The HPLC method was modified for LC/MS analysis: the flow rate was reduced to 0.5 mL/min; a gradient of 30:70 A:B to 70:30 A:B in 14 minutes; the TFA concentration in the eluents was 0.05% v/v and the retention time for dapivirine was 10.5 minutes.
Solubility studies of dapivirine were conducted to determine the appropriate sink conditions for the in vitro release studies. Dapivirine is a hydrophobic molecule; therefore a co-solvent system that can provide sink conditions (solubility greater than 3 times the maximum concentration achieved in the release medium) during dapivirine release study was needed. Since a co-solvent system consisting of 50:50 v/v i-prOH:water has been utilized previously for long-term release studies of dapivirine from silicone rings^11,18, the solubility of dapivirine was determined in 50:50 and 25:75 v/v i-prOH:water solutions. Additionally, solubility of dapivirine in liposome dispersions was evaluated in an attempt to utilize them as biorelevant sink conditions.^14,21 The liposome dispersions of 10 mg/mL in 25 mM pH 4.2 acetate buffer (osmolarity adjusted to 310 mOsm/kg with NaCl) and 25 mM pH 7.6 phosphate buffer (osmolarity adjusted to 310 mOsm/kg with NaCl) were utilized. (See in vitro release studies in Example 4 for preparation of liposome dispersions.) Dapivirine (10 mg) was dispersed in test solutions (2 mL) and shaken at 37° C. at 200 rpm. Aliquots of 200 μL were withdrawn at 24 h, 48 h and 72 h. At each time point, the aliquots were centrifuged immediately for 2 minutes at 16000 g, 100 μL of the supernatant was diluted 1:10 using 100% isopropanol and quantified by HPLC. The solubility was determined by a calibration curve generated from known concentrations of dapivirine solutions in i-prOH.

[2] = In vitro release of dapivirine from PU rings (SC and MM) in 25:75 i-prOH:water; format: physicochemical; settings: for average release rate: rings, two weeks
Method: The release profile of dapivirine was measured from PU-SC rods for a month after which the release kinetics from rings was evaluated for two weeks to determine the correlation of drug release rate from rods to that from rings. This may enable use of rods in place of rings for release kinetics evaluation thereby minimizing the scale of materials such as ring materials, quantity of drugs and volume of sink solutions required for release studies in case of monolithic IVRs. About 2 cm length segments were cut from the solid cross-sectional dapivirine loaded PU SC rods. The dimensions (length and diameter) and weight of each segment were recorded. The segments were incubated with 5 mL 25:75 v/v i-prOH:water as the sink condition in 20 mL septa covered vials at 37° C. in a water bath shaker set at 64±2 rpm. The sink was replaced with fresh co-solvent every 24±0.5 h for 30 days. HPLC analyses were performed every 2 to 5 days and the cumulative release was calculated by integrating the area under the curve using Kaleidagraph software (Synergy Software, Reading, Pa.). The release study for each loading was performed on triplicate samples. At the end of 30 days, the segments were wiped dry and the masses and dimensions of the segments were recorded. Similarly, dapivirine release kinetics were measured from rings (20 mg/g SC, 2.5 mg/g SC, 20 mg/g MM and 2.5 mg/g MM) incubated with 50 mL of 25:75 v/v i-prOH:water mixture as sink condition in 125 mL Erlenmeyer flasks with rubber septa […].
At the end of each release study, the swelling ratio was calculated by using the following equation
[formula] • where • Q=swelling ratio • Mi=mass of ring or rod segments before the release study • Mf=mass ring or rod segments after the release study

- solubility ([1]; 10 mg/mL liposome dispersion in pH 4.2 acetate buffer, 10 mg/mL pH 4.2 liposome dispersion): 844 µM (≈ 278 µg/mL)
- solubility ([1]; 10 mg/mL liposome dispersion in pH 7.6 phosphate buffer, 10 mg/mL pH 7.6 liposome dispersion): 165 µM (≈ 54.4 µg/mL)
- Time to reach saturation ([1]; 10 mg/mL pH 4.2 liposome dispersion): 48 h
- Time to reach saturation ([1]; 10 mg/mL pH 7.6 liposome dispersion): 48 h
- Time to reach saturation ([1]; 25:75 i-prOH:water): 48 h
- dapivirine solubility ([1]; 25:75 v/v i-prOH:water solution): 93 μM/L
- solubility ([1]; 25:75 v/v i-prOH:water, 25:75 i-prOH:water): 93 µM (≈ 30.6 µg/mL)
- Time to reach saturation ([1]; 50:50 i-prOH:water): 24 h
- solubility ([1]; 50:50 v/v i-prOH:water, 50:50 i-prOH:water): 3310 µM (≈ 1090 µg/mL)
- average flux from rings (SC) higher than from rods (SC) ([2]; 2.5 mg/g SC): 18%
- average flux from rings (SC) higher than from rods (SC) ([2]; 20 mg/g SC): 12%
- release kinetics of SC rings vs MM rings ([2]; p>0.05, unpaired two tailed t-test): no significant difference
- release rate (order) ([2]; rings SC and MM, 25:75 i-prOH:water, 37° C.): zero order release rate
- average release rate ([2]; 2.5 mg/g dapivirine loading, 25:75 i-prOH:water, 37° C.): 64 ± 1 µg/day
- average release rate ([2]; 20 mg/g dapivirine loading, 25:75 i-prOH:water, 37° C.): 473 ± 36 µg/day
SMILES: Cc1cc(C)c(Nc2ccnc(Nc3ccc(C#N)cc3)n2)c(C)c1 [dapivirine, 4-[[4-[(2,4,6-trimethylphenyl)amino]pyrimidin-2-yl]amino]benzonitrile]

Reference: patent publication US20110045076A1, “LINEAR ORDER RELEASE POLYMER” (priority 2008, published 2011)
